Test results published in PubChem BioAssay AID1259407 (Chemical Carcinogenesis Research Information System (CCRIS), 2018).
The source made the active and inactive calls. How the calls were made is not given here.

Test system: CCRIS mutagenicity, Ames/micronucleus/aberration tests
Test: CCRIS mutagenicity studies

O=CN(O)c1ccc(Br)cc1
mutagenic call (Test System: AMES SALMONELLA TYPHIMURIUM, Strain/Indicator: TA98, Metabolic Activation: NONE, Method: STANDARD PLATE): inactive; negative
mutagenic call (Test System: AMES SALMONELLA TYPHIMURIUM, Strain/Indicator: TA98, Metabolic Activation: RAT, LIVER, S-9, AROCLOR 1254, Method: STANDARD PLATE): active; positive
mutagenic call (Test System: AMES SALMONELLA TYPHIMURIUM, Strain/Indicator: TA100, Metabolic Activation: NONE, Method: STANDARD PLATE): inactive; negative
mutagenic call (Test System: AMES SALMONELLA TYPHIMURIUM, Strain/Indicator: TA100, Metabolic Activation: RAT, LIVER, S-9, AROCLOR 1254, Method: STANDARD PLATE): active; positive

COc1ccc(C(O)(c2cncnc2)C2CC2)cc1 (centres undefined)
mutagenic call (Test System: Ames Salmonella typhimurium, Strain/Indicator: TA98, Metabolic Activation: None, Method: Standard Plate): inactive; negative
mutagenic call (Test System: Ames Salmonella typhimurium, Strain/Indicator: TA98, Metabolic Activation: Rat, liver, S-9, Method: Standard Plate): inactive; negative
mutagenic call (Test System: Ames Salmonella typhimurium, Strain/Indicator: TA100, Metabolic Activation: None, Method: Standard Plate): inactive; negative
mutagenic call (Test System: Ames Salmonella typhimurium, Strain/Indicator: TA100, Metabolic Activation: Rat, liver, S-9, Method: Standard Plate): inactive; negative
mutagenic call (Test System: Ames Salmonella typhimurium, Strain/Indicator: TA1535, Metabolic Activation: None, Method: Standard Plate): inactive; negative
mutagenic call (Test System: Ames Salmonella typhimurium, Strain/Indicator: TA1535, Metabolic Activation: Rat, liver, S-9, Method: Standard Plate): inactive; negative
mutagenic call (Test System: Ames Salmonella typhimurium, Strain/Indicator: TA1537, Metabolic Activation: None, Method: Standard Plate): inactive; negative
mutagenic call (Test System: Ames Salmonella typhimurium, Strain/Indicator: TA1537, Metabolic Activation: Rat, liver, S-9, Method: Standard Plate): inactive; negative
mutagenic call (Test System: Ames Salmonella typhimurium, Strain/Indicator: TA1538, Metabolic Activation: None, Method: Standard Plate): inactive; negative
mutagenic call (Test System: Ames Salmonella typhimurium, Strain/Indicator: TA1538, Metabolic Activation: Rat, liver, S-9, Method: Standard Plate): inactive; negative
mutagenic call (Test System: Mouse lymphoma, Strain/Indicator: L5178Y (TK+/TK-), Metabolic Activation: None, Method: Suspension/Plate): inactive; negative
mutagenic call (Test System: Mouse lymphoma, Strain/Indicator: L5178Y (TK+/TK-), Metabolic Activation: S-9 of unspecified origin, Method: Suspension/Plate): inactive; negative

Cc1cccc(N)c1N
mutagenic call (Test System: AMES SALMONELLA TYPHIMURIUM, Strain/Indicator: TA98, Metabolic Activation: RAT, LIVER, MICROSOMES, AROCLOR 1254, Method: PREINCUBATION): active; positive
mutagenic call (Test System: AMES SALMONELLA TYPHIMURIUM, Strain/Indicator: TA98, Metabolic Activation: RAT, LIVER, MICROSOMES, DIAMINOTOLUENE, Method: PREINCUBATION): active; positive
mutagenic call (Test System: AMES SALMONELLA TYPHIMURIUM, Strain/Indicator: TA98, Metabolic Activation: RAT, LIVER, MICROSOMES, Method: PREINCUBATION): active; positive
